Reference: publication PMC5872666, “Stimulation of Dectin-1 and Dectin-2 during Parenteral Immunization, but Not Mincle, Induces Secretory IgA in Intestinal Mucosa” (Journal of Immunology Research, 2018)

Target: T1, ovalbumin (OVA) (Gallus gallus, UniProt P01012)
T1 construct: gene SERPINB14; amine-coupled to CM5 chip
T1 sequence (P01012 2-386): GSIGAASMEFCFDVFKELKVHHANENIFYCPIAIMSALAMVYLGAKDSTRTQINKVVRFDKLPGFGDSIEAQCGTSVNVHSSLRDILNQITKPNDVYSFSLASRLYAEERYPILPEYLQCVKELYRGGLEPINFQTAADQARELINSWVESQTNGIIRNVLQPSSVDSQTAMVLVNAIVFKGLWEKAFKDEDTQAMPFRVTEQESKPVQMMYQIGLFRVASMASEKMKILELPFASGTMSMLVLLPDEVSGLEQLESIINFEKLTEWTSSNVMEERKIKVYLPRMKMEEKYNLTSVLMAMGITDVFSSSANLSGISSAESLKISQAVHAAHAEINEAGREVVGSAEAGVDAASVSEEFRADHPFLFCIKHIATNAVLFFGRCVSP
Assay: SPR, Biacore […]
Type: binding

Question: How did the Kd turn out when `CCCCCCCCCCCCCCCCCCCCCC(=O)OC[C@H]1O[C@H](O[C@H]2O[C@H](COC(=O)CCCCCCCCCCCCCCCCCCCCC)[C@@H](O)[C@H](O)[C@H]2O)[C@H](O)[C@@H](O)[C@@H]1O` [TDB] was run?
Answer: The Kd was 0.235 nM.
